The values below come from publication PMC7337102 (ACS infectious diseases, 2019).

SMILES strings stand for the structures.

Holding throughout (format): biochemical
For assay [1], the target named is Eis_R37G (Mycobacterium tuberculosis, UniProt P9WFK7, R37G).
Assay [2] has as its target Eis_D26A (Mycobacterium tuberculosis, UniProt P9WFK7, D26A).
Assay [3] deals with Eis_S83G (Mycobacterium tuberculosis, UniProt P9WFK7, S83G).
Assay [4] deals with Eis_F84A (Mycobacterium tuberculosis, UniProt P9WFK7, F84A).
Assay [5] has as its target Eis_L63A (Mycobacterium tuberculosis, UniProt P9WFK7, L63A).
Assay [6] deals with Eis_R37A (Mycobacterium tuberculosis, UniProt P9WFK7, R37A).
Assay [7] deals with Eis_M65A (Mycobacterium tuberculosis, UniProt P9WFK7, M65A).
The target in assay [8] is Eis_W36R (Mycobacterium tuberculosis, UniProt P9WFK7, W36R).
The target of assay [9] is Eis_W36A (Mycobacterium tuberculosis, UniProt P9WFK7, W36A).

`NC[C@H]1O[C@H](O[C@H]2[C@H](O)[C@@H](O[C@H]3O[C@H](CO)[C@@H](O)[C@H](N)[C@H]3O)[C@H](N)C[C@@H]2N)[C@H](O)[C@@H](O)[C@@H]1O` [KAN, kanamycin]: the Michaelis constant (Km) in [1] stood at 696 ± 44 µM; in [2], 1280 ± 360 µM; in assay [3], 432 ± 48 µM; in assay [4], 569 ± 94 µM; in [5], 484 ± 93 µM; in assay [6], 971 ± 166 µM. Besides, the Km in assay [7] is 247 ± 19 µM; in [8], 352 ± 77 µM; in assay [9], 556 ± 148 µM. Also, the catalytic constant (kcat) in [1] amounted to 0.215 ± 0.0017 s⁻¹; in assay [2], 0.235 ± 0.0417 s⁻¹; in assay [3], 0.365 ± 0.013 s⁻¹; in assay [4], 0.142 ± 0.012 s⁻¹; in assay [5], 0.323 ± 0.025 s⁻¹; in [6], 0.158 ± 0.005 s⁻¹. In addition, the kcat amounted to 0.495 ± 0.015 s⁻¹ in assay [7], 0.0733 ± 0.0067 s⁻¹ in assay [8] and 0.138 ± 0.0167 s⁻¹ in [9]. Moreover, the “increase in the Km value of KAN from that for the wild-type enzyme” value in assay [2] is 2.3 fold. In addition, the “increase in the catalytic efficiency of the enzyme” value in assay [3] is recorded as 2 fold. In addition, the “increase in the catalytic efficiency from that of the wild-type enzyme” value in assay [7] amounted to 4.6 fold. The “maximum turnover rate, fold higher” value in assay [7] was 2 fold. Also, in assay [8], the “decrease in the maximum turnover rate” value is 3.3 fold. For the same compound, the “increase of the binding affinity to KAN” value in [8] was determined as 1.6 fold.

What is called Km is the substrate concentration at which the rate is half of its maximum. By kcat is commonly meant the maximal rate divided by the concentration of active sites.
